*1 amine or outer side, *2 acyl side, *3 side chain or, on linkers, in order; H or OH if unused. Where a SMILES comes first, the peptide text is derived from it. Bridges are numbered along the chain shown (N, C = ends). Roman numbers before positions name the chains, in order. [ ]: non-standard residue; d: D form. The star is where a group is joined. C18 diacid = O=C(O)CCCCCCCCCCCCCCCCC(=O)*; γGlu = O=C(O)[C@H](CCC(=O)[*:2])N[*:1]; Desaminohistidyl = O=C(CCc1c[nH]cn1)*; Aib = CC(C)(N)C(=O)O
Target: T1, human glucagon receptor (Homo sapiens, UniProt P47871)
T1 construct: expressed in transfected cells; host or cells: membranes of BHK cells, clone BHK hGCGR A3*25
T1 sequence (P47871 26-477): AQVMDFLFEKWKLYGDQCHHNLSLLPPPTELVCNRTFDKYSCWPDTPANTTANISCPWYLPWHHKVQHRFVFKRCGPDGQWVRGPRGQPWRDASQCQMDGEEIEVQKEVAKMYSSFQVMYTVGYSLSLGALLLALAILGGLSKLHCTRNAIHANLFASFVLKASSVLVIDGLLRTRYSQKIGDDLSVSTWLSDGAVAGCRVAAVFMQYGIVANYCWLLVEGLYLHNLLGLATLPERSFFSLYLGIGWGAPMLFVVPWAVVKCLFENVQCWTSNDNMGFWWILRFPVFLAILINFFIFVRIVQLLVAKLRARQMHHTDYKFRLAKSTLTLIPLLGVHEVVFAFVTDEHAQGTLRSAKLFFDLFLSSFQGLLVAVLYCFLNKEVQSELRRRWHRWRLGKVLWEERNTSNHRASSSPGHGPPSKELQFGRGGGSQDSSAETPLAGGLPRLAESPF
Assay: Assay (I)(b): glucagon receptor potency, CRE luciferase reporter gene assay in BHK cells
Assay type: cell-based
Conditions: BHK cells expressing human glucagon receptor, read-out: EC50 GlucagonR
Experimental: Assay (I): GLP-1 and Glucagon Receptor Potency The purpose of this example was to test the activity or potency, of the GLP-1 derivatives of the invention, in vitro. The in vitro potency is the measure of human GLP-1 receptor (GLP-1R) or glucagon receptor (glucagonR) activation, respectively, in a whole cell assay. In vitro potency was determined by measuring the cellular response of human GLP-1 or glucagon receptor activation, respectively, in a reporter gene assay. The assay was performed in a BHK cell line that stably expresses either the human GLP-1 receptor or the human glucagon receptor and comprises the DNA for the cAMP response element (CRE) coupled to a promoter and the gene for firefly luciferase (CRE luciferase). […] When assay incubation was completed, the luciferase substrate (luciferin) was added and the enzyme converted luciferin to oxyluciferin and produces bioluminescence. The luminescence was measured as the readout for the assay. […] The cells were counted and adjusted to 5×10EE3 cells/50 μl (1×10EE5 cells/ml) in Assay Medium. […] Each assay plate was read in a Perkin Elmer TopCount NXT instrument. […] EC50 values were calculated by the software and reported in pM.

EC50: 0.143 nM
Structure (SMILES): CC[C@H](C)[C@H](NC(=O)[C@H](Cc1ccccc1)NC(=O)[C@H](CCC(=O)O)NC(=O)[C@H](CCCNC(=N)N)NC(=O)[C@H](C)NC(=O)[C@H](C)NC(=O)[C@H](CCC(N)=O)NC(=O)CNC(=O)[C@H](CCC(=O)O)NC(=O)[C@H](CC(C)C)NC(=O)[C@H](Cc1ccc(O)cc1)NC(=O)[C@H](CCCNC(=N)N)NC(=O)[C@H](CO)NC(=O)[C@@H](NC(=O)[C@H](CC(=O)O)NC(=O)[C@H](CO)NC(=O)[C@@H](NC(=O)[C@H](Cc1ccccc1)NC(=O)[C@@H](NC(=O)CNC(=O)[C@H](Cc1c[nH]cn1)NC(=O)C(C)(C)NC(=O)CCc1c[nH]cn1)[C@@H](C)O)[C@@H](C)O)C(C)C)C(=O)N[C@@H](C)C(=O)N[C@@H](Cc1c[nH]c2ccccc12)C(=O)N[C@@H](CC(C)C)C(=O)N[C@@H](CC(C)C)C(=O)N[C@@H](CCCCNC(=O)CNC(=O)[C@H](CO)NC(=O)[C@H](CCC(=O)O)NC(=O)CNC(=O)[C@H](CO)NC(=O)CC[C@H](NC(=O)CC[C@H](NC(=O)CCCCCCCCCCCCCCCCC(=O)O)C(=O)O)C(=O)O)C(=O)N[C@H](C(N)=O)[C@@H](C)O [Example 8, N^ε34-[2-[[(2S)-2-[[(2S)-4-carboxy-2-[[2-[[(2S)-2-[[(4S)-4-carboxy-4-[[(4S)-4-carboxy-4-(17-carboxyheptadecanoylamino)butanoyl]amino]butanoyl]amino]-3-hydroxypropanoyl]amino]acetyl]amino]butanoyl]amino]-3-hydroxypropanoyl]amino]acetyl]-[Imp7,Aib8,His9,Arg18,Arg26,Leu33,Thr35]-GLP-1-(7-35)-peptide amide] (I: Desaminohistidyl-[Aib]HGTFTSDVSRYLEGQAAREFIAWLLKT-NH2 / II: {C18 diacid-γGlu-γGlu}-SGESG; amide I:27-II:C)
